Results as given in publication PMC12591137, “Emodin Alleviates Sepsis‐Induced Multiorgan Damage by Inhibiting NETosis through Targeting Neutrophils BCL‐10” (Advanced Science, 2025).

Columns and labels:
[1] = biological target: T1, rhBCL-10 (recombinant human BCL-10) (Homo sapiens, UniProt O95999); experiment: thermal shift, soluble protein by western blot; type: binding; conditions: 100 µM emodin, 37-67 °C; text says recombinant BCL-10, methods describe lysate of PMA-treated HL-60 cells
T1 construct: gene BCL10; recombinant human protein, amine-coupled on sensor chip for SPR
T1 sequence (O95999 1-233): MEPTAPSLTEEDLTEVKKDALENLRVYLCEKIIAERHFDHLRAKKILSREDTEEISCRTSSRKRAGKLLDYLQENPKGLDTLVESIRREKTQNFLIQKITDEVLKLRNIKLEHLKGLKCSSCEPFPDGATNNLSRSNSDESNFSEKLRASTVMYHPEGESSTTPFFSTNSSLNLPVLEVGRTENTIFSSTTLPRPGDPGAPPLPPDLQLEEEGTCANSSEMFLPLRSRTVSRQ

[2] = biological target: T2, Flag-BCL-10 (Homo sapiens, UniProt O95999); experiment: competition of free emodin against pull-down by emodin-Sepharose, anti-Flag western blot; type: biochemical; conditions: 100 µM free emodin; HEK293T lysate, pH 7.4, 4 °C
T2 construct: gene BCL10; Flag-tagged, overexpressed in HEK293T, cell lysate; plasmid section instead says N-terminal 'Streptococcus' tag in pCDH-EF1-MCS-T2A-Puro
T2 sequence (O95999 1-233): T1 sequence (O95999 1-233)

[3] = biological target: T1, rhBCL-10 (recombinant human BCL-10); experiment: SPR (Biacore T200), global […] Langmuir kinetic fit; type: binding

How did the thermal stabilisation [1] turn out when `Cc1cc(O)c2c(c1)C(=O)c1cc(O)cc(O)c1C2=O` [Emodin] was run?
The thermal stabilisation was “Emodin binding significantly enhances BCL-10′s thermal resistance”.

And the “competition of free emodin against pull-down by emodin-Sepharose, anti-Flag west” value [2]?
Its value is “free Emodin competitively inhibited the binding of Flag-BCL-10 to Emodin-Sepharose”.

And the Kd [3]?
The Kd was 1940 nM.
